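Tested at 5 concentrations; 48 h exposure; 96-well plates; endpoints linearly interpolated, else capped at highest concentration. TGI denotes the concentration required for complete inhibition of growth.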
Tests used:
Assay in all cases: NCI anticancer screen, dose series, 48 h
[1] = tested on: UACC-62 melanoma
[2] = tested on: UO-31 renal
[3] = tested on: SF-268 CNS
[4] = tested on: MDA-MB-435
[5] = tested on: HCC-2998 colon
[6] = tested on: DU-145 prostate
[7] = tested on: CCRF-CEM leukemia
[8] = tested on: KM12 colon
[9] = tested on: SK-MEL-2 melanoma
[10] = tested on: OVCAR-5 ovarian
[11] = tested on: NCI-H23 lung
[12] = tested on: SNB-75 CNS
[13] = tested on: HCT-116 colon
[14] = tested on: NCI-H226 lung
[15] = tested on: PC-3 prostate
[16] = tested on: M14 melanoma
[17] = tested on: MDA-N
[18] = tested on: SNB-19 CNS
[19] = tested on: IGROV1 ovarian
[20] = tested on: OVCAR-4 ovarian
[21] = tested on: NCI-H460 lung
[22] = tested on: HT29 colon
[23] = tested on: A549 NSCLC
[24] = tested on: K-562 leukemia
[25] = tested on: RXF 393 renal
[26] = tested on: SF-295 CNS
[27] = tested on: T-47D breast
[28] = tested on: RPMI-8226 leukemia
[29] = tested on: OVCAR-3 ovarian
[30] = tested on: HS 578T breast
[31] = tested on: MCF7 breast
[32] = tested on: CAKI-1 renal
[33] = tested on: A498 renal
[34] = tested on: HCT-15 colon
[35] = tested on: SF-539 CNS
[36] = tested on: EKVX NSCLC
[37] = tested on: NCI/ADR-RES ovarian
[38] = tested on: SR leukemia
[39] = tested on: TK-10 renal
[40] = tested on: UACC-257 melanoma
[41] = tested on: BT-549 breast
[42] = tested on: OVCAR-8 ovarian
[43] = tested on: LOX IMVI melanoma
[44] = tested on: SK-MEL-28 melanoma
[45] = tested on: SK-MEL-5 melanoma
[46] = tested on: MALME-3M melanoma
[47] = tested on: COLO 205 colon
[48] = tested on: HL-60(TB) leukemia
[49] = tested on: MDA-MB-231 breast
[50] = tested on: 786-0 renal
[51] = tested on: NCI-H522 lung
[52] = tested on: SN12C renal
[53] = tested on: MOLT-4 leukemia
[54] = tested on: U251 CNS
[55] = tested on: SW-620 colon
[56] = tested on: HOP-92 NSCLC
[57] = tested on: HOP-62 NSCLC
[58] = tested on: SK-OV-3 ovarian
[59] = tested on: ACHN renal
[60] = tested on: M19-MEL melanoma
[61] = tested on: DMS 273 small cell lung
[62] = tested on: DLD-1 colon
[63] = tested on: KM20L2 colon
[64] = tested on: DMS 114 small cell lung
[65] = tested on: SNB-78 CNS
[66] = tested on: HOP-18 NSCLC

## Nc1cccc2nsnc12
[1]
  TGI: > 100 µM
[2]
  TGI: > 100 µM
[3]
  TGI: > 100 µM
[4]
  TGI: > 100 µM
[5]
  TGI: > 100 µM
[6]
  TGI: > 100 µM
[7]
  TGI: > 82.4 µM
[8]
  TGI: > 100 µM
[9]
  TGI: > 100 µM
[10]
  TGI: > 100 µM
[11]
  TGI: > 100 µM
[12]
  TGI: > 100 µM
[13]
  TGI: > 100 µM
[14]
  TGI: > 100 µM
[15]
  TGI: > 100 µM
[16]
  TGI: > 100 µM
[17]
  TGI: > 100 µM
[18]
  TGI: > 100 µM
[19]
  TGI: > 100 µM
[20]
  TGI: > 100 µM
[21]
  TGI: > 100 µM
[22]
  TGI: > 100 µM
[23]
  TGI: > 100 µM
[24]
  TGI: > 85.4 µM
[25]
  TGI: > 100 µM
[26]
  TGI: > 100 µM
[27]
  TGI: > 100 µM
[28]
  TGI: > 86.9 µM
[29]
  TGI: > 100 µM
[30]
  TGI: > 100 µM
[31]
  TGI: > 100 µM
[32]
  TGI: > 100 µM
[33]
  TGI: > 100 µM
[34]
  TGI: > 100 µM
[35]
  TGI: > 100 µM
[36]
  TGI: > 100 µM
[37]
  TGI: > 100 µM
[38]
  TGI: > 63.5 µM
[39]
  TGI: > 100 µM
[40]
  TGI: > 100 µM
[41]
  TGI: > 100 µM
[42]
  TGI: > 100 µM
[43]
  TGI: > 100 µM
[44]
  TGI: > 100 µM
[45]
  TGI: > 100 µM
[46]
  TGI: > 100 µM
[47]
  TGI: > 100 µM
[48]
  TGI: 26.7 µM
[49]
  TGI: > 100 µM
[50]
  TGI: > 100 µM
[51]
  TGI: > 52.2 µM
[52]
  TGI: > 100 µM
[53]
  TGI: > 54.5 µM
[54]
  TGI: > 100 µM
[55]
  TGI: > 100 µM
[56]
  TGI: > 100 µM
[57]
  TGI: > 100 µM
[58]
  TGI: > 100 µM
[59]
  TGI: > 100 µM

## O=[N+]([O-])c1cc(/C=N/NS(=O)(=O)c2ccc(F)cc2)c(O)c([N+](=O)[O-])c1
[1]
  TGI: > 100 µM
[2]
  TGI: > 100 µM
[3]
  TGI: > 100 µM
[5]
  TGI: > 100 µM
[7]
  TGI: > 100 µM
[8]
  TGI: 50 µM
[9]
  TGI: > 100 µM
[10]
  TGI: > 100 µM
[11]
  TGI: 60.1 µM
[12]
  TGI: 76.9 µM
[13]
  TGI: > 100 µM
[60]
  TGI: > 100 µM
[16]
  TGI: 52.2 µM
[18]
  TGI: > 100 µM
[19]
  TGI: > 100 µM
[61]
  TGI: 98.9 µM
[20]
  TGI: > 100 µM
[21]
  TGI: 84 µM
[22]
  TGI: 64.6 µM
[23]
  TGI: > 100 µM
[24]
  TGI: > 100 µM
[25]
  TGI: 84.9 µM
[62]
  TGI: > 100 µM
[26]
  TGI: > 100 µM
[28]
  TGI: > 100 µM
[29]
  TGI: 68 µM
[32]
  TGI: > 100 µM
[33]
  TGI: 78.1 µM
[34]
  TGI: 67.4 µM
[35]
  TGI: 43.9 µM
[36]
  TGI: > 100 µM
[38]
  TGI: 41.2 µM
[39]
  TGI: > 100 µM
[40]
  TGI: > 100 µM
[42]
  TGI: 57.4 µM
[43]
  TGI: > 100 µM
[44]
  TGI: > 100 µM
[45]
  TGI: 72 µM
[46]
  TGI: > 100 µM
[47]
  TGI: 34.5 µM
[48]
  TGI: 67.3 µM
[63]
  TGI: 59.3 µM
[50]
  TGI: > 100 µM
[64]
  TGI: > 100 µM
[51]
  TGI: 46.3 µM
[52]
  TGI: > 100 µM
[53]
  TGI: 88.6 µM
[54]
  TGI: 44.7 µM
[55]
  TGI: > 100 µM
[65]
  TGI: > 100 µM
[56]
  TGI: > 100 µM
[66]
  TGI: > 100 µM
[57]
  TGI: > 100 µM
[58]
  TGI: 78.3 µM
[59]
  TGI: > 100 µM

## O=C1N[C@@H]2c3c(Br)sc(Br)c3C(=O)[C@@H]2N1
[1]
  TGI: 15.4 µM
[2]
  TGI: 9.93 µM
[3]
  TGI: 13.8 µM
[4]
  TGI: 4.83 µM
[5]
  TGI: 3.42 µM
[6]
  TGI: 17.2 µM
[7]
  TGI: 3.29 µM
[8]
  TGI: 19.4 µM
[9]
  TGI: 13.7 µM
[10]
  TGI: 35.1 µM
[11]
  TGI: 17 µM
[12]
  TGI: 18.4 µM
[13]
  TGI: 3.88 µM
[14]
  TGI: 91.2 µM
[15]
  TGI: 10.4 µM
[16]
  TGI: 16.5 µM
[17]
  TGI: 5.04 µM
[18]
  TGI: 26.2 µM
[19]
  TGI: 7.16 µM
[20]
  TGI: 16.8 µM
[21]
  TGI: 18.3 µM
[22]
  TGI: 9.01 µM
[23]
  TGI: 30 µM
[24]
  TGI: > 100 µM
[25]
  TGI: 14.3 µM
[26]
  TGI: 29.5 µM
[27]
  TGI: 21.5 µM
[28]
  TGI: 18.5 µM
[29]
  TGI: 6.72 µM
[30]
  TGI: 37 µM
[31]
  TGI: 10.1 µM
[32]
  TGI: 8.56 µM
[33]
  TGI: 34 µM
[34]
  TGI: 11.1 µM
[35]
  TGI: 8.88 µM
[36]
  TGI: 17.1 µM
[37]
  TGI: > 70.6 µM
[38]
  TGI: 4.72 µM
[39]
  TGI: 6.09 µM
[40]
  TGI: 8.19 µM
[41]
  TGI: 53 µM
[42]
  TGI: 10.5 µM
[43]
  TGI: 4.28 µM
[44]
  TGI: 12.3 µM
[45]
  TGI: 23.9 µM
[46]
  TGI: 18.3 µM
[47]
  TGI: 12.1 µM
[48]
  TGI: 5.36 µM
[49]
  TGI: 10.9 µM
[50]
  TGI: 6.4 µM
[51]
  TGI: 11.2 µM
[52]
  TGI: 14.5 µM
[53]
  TGI: 9.08 µM
[54]
  TGI: 7.03 µM
[55]
  TGI: 4.33 µM
[56]
  TGI: 12.5 µM
[57]
  TGI: 20.6 µM
[58]
  TGI: 27.1 µM
[59]
  TGI: 14.1 µM

From PubChem BioAssay (NCI)
